Series [1] can be described thus: in vivo. Conditions: Wistar, rat, iv, 3 mg/kg.
A short description of series [2]: in vivo. Conditions: Wistar, rat, iv, 3 mg/kg. This is another data set of the same source.
Series [3] can be described thus: in vivo. Conditions: Wistar, rat, po, 10 mg/kg.
Series [4] in a line: in vivo. The note with it: Wistar, rat, po, 10 mg/kg. This is another data set of the same source.
Series [5] can be described thus: in vivo. Conditions: Wistar, rat, iv, 3 mg/kg. The source holds these as a separate data set.
Series [6] in a line: in vivo. Conditions: Wistar, rat, po, 10 mg/kg. This is another data set of the same source.
The nature of series [7]: in vivo. The note with it: Wistar, rat, po, 10 mg/kg. The source holds these as a separate data set.
Series [8] can be described thus: in vivo. Conditions: Wistar, rat, po, 10 mg/kg. This is another data set of the same source.
A short description of series [9]: in vivo. The note with it: Wistar, rat, brain/plasma, po, 10 mg/kg.
Series [10] in a line: physchem. The note with it: buffer, pH 7.4.
Series [11] is described as follows: physchem. The note with it: buffer, pH 7.4. This is another data set of the same source.

Values after ≈ are worked out from the molar mass of the structure shown.

By clearance is commonly meant the rate of elimination divided by the concentration. For orientation: half-life means the time needed for the level to fall by half in the phase considered. Lower therefore signals fast loss. One may read the Tmax as the time at which the peak concentration occurs. As a reminder, the AUC(0-t) is the area under the concentration-time curve up to a stated or last time point. High values mean more exposure, low ones less exposure. Usually Cmax stands for the maximum level reached in the sampled fluid or tissue. The term bioavailability denotes dose-corrected exposure relative to a reference, in per cent. A higher bioavailability goes with good availability. Usually Kp stands for tissue or fluid exposure divided by exposure in the circulation. As usually defined, the logD is lipophilicity at a set pH, counting ionised and neutral species. A high value points to higher lipophilicity. By solubility is commonly meant how much of the substance goes into solution per volume. Lower therefore signals a poorly soluble substance. `O=C1c2nc3cccc(C(F)(F)F)c3n2CCN1CC1CCC1` had a clearance in “in vivo [1]” of 60 mL/min/kg. For the same compound, the half-life in the series “in vivo [2]” is 15.6 min; in the series “in vivo [3]”, 54.6 min. In the series “in vivo [4]”, the Tmax was 30 min. This compound gave an exposure AUC(0-t) at 2 h in the series “in vivo [5]” of 833 ng·h/mL. The same compound came in with an exposure AUC(0-t) at 5 h in “in vivo [6]” of 1820 ng·h/mL. This compound also showed a peak concentration (Cmax) in the series “in vivo [7]” of 1360 ng/mL. The compound also showed a bioavailability in the series “in vivo [8]” of 67%. In addition, in “in vivo [9]”, the Kp came out at 1.02. In “physchem [10]”, this compound had a logD of 3.09. In the series “physchem [11]”, this compound yielded a solubility of 43 µg/mL (≈ 133 µM).
